How the values were obtained:
Assay in all cases: relative viability (nuclei count vs DMSO), 5 days (fraction); higher = more cells survive
[1] = compound: CC(C)C[C@H](NC(=O)[C@H](CCc1ccccc1)NC(=O)CN1CCOCC1)C(=O)N[C@@H](Cc1ccccc1)C(=O)N[C@@H](CC(C)C)C(=O)[C@@]1(C)CO1 [Carfilzomib] + Cc1nc(NC(=O)N2CCC[C@H]2C(N)=O)sc1-c1ccnc(C(C)(C)C(F)(F)F)c1 [Alpelisib] (partner 2 µM)
How it was run: (§1)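 Values are medians from duplicate plates. Each reflects relative viability, defined as the nuclei count of treated wells over that of vehicle wells. Lung cancer cell lines in 1536-well plates were pin-tool dosed one day after seeding with one drug alone or with a fixed anchor-drug dose plus five library-drug doses (not always all listed) in √10 steps, then fixed, stained and imaged at 4× after 5 days.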

[2] = compound: CC(C)C[C@H](NC(=O)[C@H](CCc1ccccc1)NC(=O)CN1CCOCC1)C(=O)N[C@@H](Cc1ccccc1)C(=O)N[C@@H](CC(C)C)C(=O)[C@@]1(C)CO1 [Carfilzomib] + CC(C)C[C@H](NC(=O)[C@H](Cc1ccccc1)NC(=O)c1cnccn1)B(O)O [Bortezomib] (partner 0.002 µM)
How it was run: as §1

[3] = compound: C[C@@H](Oc1cc(-c2cnn(C3CCNCC3)c2)cnc1N)c1c(Cl)ccc(F)c1Cl [Crizotinib] + CS(=O)(=O)CCNCc1ccc(-c2ccc3ncnc(Nc4ccc(OCc5cccc(F)c5)c(Cl)c4)c3c2)o1 [Lapatinib] (partner 2 µM)
How it was run: as §1

[4] = compound: O=C(c1cc(Cc2n[nH]c(=O)c3ccccc23)ccc1F)N1CCN(C(=O)C2CC2)CC1 [Olaparib] + NC(=O)Nc1cc(-c2cccc(F)c2)sc1C(=O)N[C@H]1CCCNC1 [AZD7762] (partner 0.2 µM)
How it was run: as §1

Row | Cell Line | relative viability ([1]; first compound 0.001 µM) | relative viability ([1]; first compound 0.003162 µM) | relative viability ([1]; first compound 0.01 µM) | relative viability ([1]; first compound 0.03162 µM) | relative viability ([1]; first compound 0.1 µM) | relative viability ([2]; first compound 0.001 µM) | relative viability ([2]; first compound 0.003162 µM) | relative viability ([2]; first compound 0.01 µM) | relative viability ([2]; first compound 0.03162 µM) | relative viability ([2]; first compound 0.1 µM) | relative viability ([3]; first compound 0.01 µM) | relative viability ([3]; first compound 0.03162 µM) | relative viability ([3]; first compound 0.1 µM) | relative viability ([3]; first compound 0.3162 µM) | relative viability ([3]; first compound 1 µM) | relative viability ([4]; first compound 0.08 µM) | relative viability ([4]; first compound 0.253 µM) | relative viability ([4]; first compound 2.53 µM) | relative viability ([4]; first compound 8 µM)
1 | HCC-78 | 0.327 | 0.45 | 0.362 | 0.287 | 0.157 | 0.474 | 0.514 | 0.402 | 0.192 | 0.193 | 0.77 | 0.828 | 0.697 | 0.261 | 1.26 | 0.839 | 0.664 | 0.672 | 0.737
2 | IA-LM | 0.747 | 0.821 | 0.633 | 0.151 | 0.0147 | 0.843 | 0.673 | 0.584 | 0.0124 | 0.0142 | 0.861 | 0.954 | 0.738 | 0.822 | 0.641 |  |  |  | 
3 | LCLC-103H | 0.972 | 1.01 | 0.99 | 0.671 | 0.195 | 1 | 1.14 | 0.678 | 0.294 | 0.27 |  |  |  |  |  | 0.916 | 0.773 | 0.727 | 0.56
4 | LK-2 |  | 1.59 | 1.1 | 0.263 | 0.255 |  |  |  |  |  | 0.953 | 0.852 | 0.819 | 0.867 |  | 0.351 | 0.394 | 0.348 | 0.471
5 | NCI-H358 | 1.21 | 1.19 | 0.85 | 0.153 | 0.13 |  |  |  |  |  | 0.392 | 0.447 | 0.445 | 0.382 | 0.483 | 0.574 | 0.522 | 0.495 | 0.382
6 | NCI-H441 | 0.946 | 0.842 | 0.2 | 0.102 | 0.15 | 0.25 | 0.383 | 0.14 | 0.153 | 0.111 |  |  |  |  |  | 1.16 | 1.03 | 1 | 0.446
7 | NCI-H520 | 1.11 | 0.951 | 0.574 | 0.138 | 0.137 | 0.45 | 0.179 | 0.142 | 0.129 | 0.132 | 0.75 | 0.86 | 0.827 | 0.391 | 0.927 |  |  |  | 
8 | NCI-H522 |  |  |  |  |  |  |  |  |  |  |  |  |  |  |  | 0.974 | 0.896 | 0.809 | 0.705
9 | NCI-H661 | 0.778 | 0.93 | 0.495 | 0.615 | 0.181 | 0.801 | 0.965 | 0.842 | 0.384 | 0.214 | 0.551 | 0.461 | 0.43 | 0.469 | 0.539 |  |  |  | 
10 | NCI-H1299 | 1.1 | 1.01 | 1.06 | 1.02 | 0.257 | 0.997 | 1.09 | 1.02 | 0.986 | 0.156 | 0.966 | 0.942 | 0.896 | 0.996 | 0.955 |  |  |  | 
11 | NCI-H1395 | 0.995 | 1.27 | 1.19 | 0.335 | 0.356 |  |  |  |  |  | 0.971 | 1.14 | 1 | 0.922 | 0.956 | 0.429 | 0.334 | 0.384 | 0.359
12 | NCI-H1563 | 1.04 | 0.866 | 0.877 | 0.812 | 0.569 | 0.815 | 0.985 | 0.836 | 0.513 | 0.477 | 0.88 | 0.962 | 0.936 | 0.753 | 0.789 |  |  |  | 
13 | NCI-H1648 |  |  |  |  |  |  |  |  |  |  |  |  |  |  |  | 0.831 | 0.75 |  | 0.544
14 | NCI-H1650 |  |  |  |  |  |  | 0.19 | 0.17 | 0.195 | 0.197 | 0.699 | 0.819 | 0.828 | 0.363 | 0.799 |  |  |  | 
15 | NCI-H1944 | 0.776 | 0.877 | 0.776 | 0.938 | 0.304 |  |  |  |  |  | 0.751 | 0.82 | 0.767 | 0.715 | 0.863 | 0.511 | 0.729 | 0.43 | 0.383
16 | NCI-H2009 | 1.24 | 1.21 | 1.21 | 0.959 | 0.0547 | 1.11 | 1.26 | 0.78 | 0.122 | 0.0487 | 0.845 | 0.984 | 0.956 | 0.812 | 0.93 |  |  |  | 
17 | NCI-H2023 | 0.605 | 0.539 | 0.732 | 0.488 | 0.0793 | 0.951 | 1.07 | 1.01 | 0.184 | 0.0639 | 0.864 | 0.884 | 0.71 | 0.372 | 0.465 |  |  |  | 
18 | NCI-H2170 | 0.801 | 0.775 | 0.875 | 0.659 | 0.24 |  |  |  |  |  | 0.274 | 0.283 | 0.261 | 0.243 | 0.241 | 0.718 | 0.857 | 0.627 | 0.398
19 | NCI-H2228 | 0.662 | 0.73 | 0.49 | 0.108 | 0.156 | 0.94 | 0.54 | 0.257 | 0.0941 | 0.156 | 0.814 | 0.827 | 1.06 | 0.488 | 0.412 |  |  |  | 
20 | NCI-H2342 |  |  |  |  |  |  |  |  |  |  |  |  |  |  |  | 0.544 | 0.4 | 0.439 | 0.474
21 | SK-LU-1 | 1.05 | 1 | 0.712 | 0.182 | 0.143 | 0.878 | 1.19 | 0.797 | 0.195 | 0.237 | 0.833 | 0.953 | 0.859 | 0.889 |  |  |  |  | 
22 | SK-MES-1 | 0.867 | 1.04 | 0.992 | 0.782 | 0.162 |  |  |  |  |  | 0.415 | 0.414 | 0.51 | 0.43 | 0.541 |  |  |  | 
23 | SW 900 |  |  |  |  |  |  |  |  |  |  |  |  |  |  |  | 0.652 | 0.637 | 0.584 | 0.555
24 | SW 1573 | 0.731 | 0.835 | 0.642 | 0.19 | 0.096 | 0.986 | 0.959 | 0.546 | 0.114 | 0.0592 | 1.13 | 1.03 | 0.956 | 1.07 | 1.08 |  |  |  | 
25 | UMC-11 | 1.01 | 0.976 | 0.947 | 1.03 | 0.152 | 0.66 | 0.887 | 0.701 | 0.533 | 0.179 |  | 0.975 | 1.02 |  | 0.668 |  |  |  | 

Reference: the supplement of paper PMC10307832
